Consider five compounds from US8097623B2, “Indoles useful in the treatment of inflammation” (Biolipox AB, priority 2005, dated 2012).

The assay concerns the target T1, mPGES-1 (Homo sapiens, UniProt O14684).
T1 construct: made in house; host or cells: E. coli
T1 sequence (O14684 1-152): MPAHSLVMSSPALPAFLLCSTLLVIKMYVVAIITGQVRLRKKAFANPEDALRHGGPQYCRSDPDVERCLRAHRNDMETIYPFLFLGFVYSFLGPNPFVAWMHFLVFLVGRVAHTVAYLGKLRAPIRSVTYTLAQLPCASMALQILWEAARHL
Put plainly: mPGES-1 biological test: conversion of PGH2 to PGE2, PGE2 quantified by HPLC. It counts as biochemical. The settings on record: mPGES-1 expressed in E. coli, membrane fraction; 25 min preincubation with inhibitor, 60 s with PGH2, room temperature; read-out: IC50 (inhibition of mPGES-1). As to the method: In the assay mPGES-1 catalyses the reaction where the substrate PGH2 is converted to PGE2. mPGES-1 is expressed in E. coli and the membrane fraction is dissolved in 20 mM NaPi-buffer pH 8.0 and stored at −80° C. In the assay mPGES-1 is dissolved in 0.1M KPi-buffer pH 7.35 with 2.5 mM glutathione. The stop solution consists of H2O/MeCN (7/3), containing FeCl2 (25 mM) and HCl (0.15 M). The assay is performed at room temperature in 96-well plates. Analysis of the amount of PGE2 is performed with reversed phase HPLC (Waters 2795 equipped with a 3.9×150 mm C18 column). The mobile phase consists of H2O/MeCN (7/3), containing TFA (0.056%), and absorbance is measured at 195 nm with a Waters 2487 UV-detector.
The following is added chronologically to each well: • 1. 100 μL mPGES-1 in KPi-buffer with glutathione. Total protein concentration: 0.02 mg/mL. • 2. 1 μL inhibitor in DMSO. Incubation of the plate at room temperature for 25 minutes. • 3. 4 μL of a 0.25 mM PGH2 solution. Incubation of the plate at room temperature for 60 seconds. • 4. […] stop solution. • 180 μL per sample is analyzed with HPLC.

Broadly, the IC50 is the concentration at which inhibition is half-maximal. For the compound `CC(C)Oc1ccc(-n2c(C(=O)O)c(C(=O)O)c3cc(Oc4ccc(C(F)(F)F)cn4)ccc32)cc1` [Example 19, 1-(4-Isopropoxyphenyl)-5-(5-trifluoromethylpyridin-2-yloxy)indole-2,3-dicarboxylic acid], the half-inhibitory concentration (IC50) came out at 4.3 µM.

For `CCOC(=O)c1c(C(=O)O)c2cc(-c3ccc(C(F)(F)F)cc3)ccc2n1-c1ccc(OC2CCCC2)cc1` [Example 67, 1-(4-Cyclopentyloxyphenyl)-5-(4-trifluoromethylphenyl)indole-2,3-dicarboxylic acid 2-ethyl ester], the IC50 amounted to 1.9 µM.

As to `CC(=O)NC(Cc1c(C(=O)O)n(-c2ccc(OC3CCCC3)cc2)c2ccc(-c3ccc(C(F)(F)F)cc3)cc12)C(=O)O` (centres unmarked) [Example 85, 3-(2-Acetylamino-2-carboxyethyl)-1-(4-cyclopentyloxyphenyl)-5-(4-trifluoromethylphenyl)indole-2-carboxylic acid], the IC50 was 6.9 µM.

Consider `CC(C)Oc1ccc(-n2c(C(=O)O)c(CN3CCCC3C(=O)O)c3cc(-c4ccc(C(C)(C)C)cc4)ccc32)cc1` (centres unmarked) [Example 87, 1-[5-(4-tert-Butylphenyl)-2-carboxy-1-(4-isopropoxyphenyl)indol-3-ylmethyl]-2-carboxypyrrolidinium chloride], for which the IC50 stood at 2.3 µM.

Regarding `CC(C)Oc1ccc(-n2c(C(=O)O)c(CCC(=O)O)c3cc(-c4ccc(C(F)(F)F)cn4)ccc32)cc1` [Example 88, 3-(2-Carboxyethyl)-1-(4-isopropoxyphenyl)-5-(5-trifluoromethylpyridin-2-yl)indole-2-carboxylic acid], the IC50 turned out to be 5.4 µM.
